Results from article PMC8199613, “Discovery of Novel Small-Molecule Inhibitors of PD-1/PD-L1 Interaction via Structural Simplification Strategy” (Molecules, 2021).
In brackets after ≈: the same amount, converted by molar mass.

Experiments:
[1] = Water solubility by HPLC; assay type: physicochemical; settings: aqueous buffer, thermodynamic from solid, pH 7.4, PBS
Experimental: The aqueous solubility was estimated by HPLC. The HPLC analysis was performed on a Shimadzu LC-20AT machine with a BDS Hypersil C18 column, and the column temperature was at 28 °C. Mobile phase B (100% MeOH) and mobile phase A (100% water) were used in a gradient elution program (0 min: 30% (B), 2 min: 50% (B), 8 min: 95% (B), 14 min: 95% (B), 18 min: 70% (B), 20 min: 30% (B)) with a flow rate of 1.0 mL/min at […]. Methanol was used to configure an accurate compounds concentration to calculate the standard curve. The excess test compound was dissolved in PBS (KH2PO4 0.24 g + KCl 0.2 g + NaCl 8 g + Na2HPO4·12H2O 3.58 g + 1 L water) and then analyzed by HPLC.

[2] = target: T1, PD-1/PD-L1 interaction (Homo sapiens, UniProt Q9NZQ7); test: HTRF-based PD-1/PD-L1 binding assay; settings: for inhibition at 0.1 µM: 0.1 μM compound, read-out: Inhibitory Rate (%) 0.1 μM; for inhibition at 0.1 µM / inhibition at 1 µM / IC50: HTRF; for inhibition at 1 µM: 1 μM compound, read-out: Inhibitory Rate (%) 1 μM; for IC50: two independent experiments; for LE: LE = −1.35 logIC50/Nheavy atoms (HTRF IC50)
T1 construct: purchased Cisbio 64ICP01PEG
T1 sequence (Q9NZQ7 19-238 limits assumed): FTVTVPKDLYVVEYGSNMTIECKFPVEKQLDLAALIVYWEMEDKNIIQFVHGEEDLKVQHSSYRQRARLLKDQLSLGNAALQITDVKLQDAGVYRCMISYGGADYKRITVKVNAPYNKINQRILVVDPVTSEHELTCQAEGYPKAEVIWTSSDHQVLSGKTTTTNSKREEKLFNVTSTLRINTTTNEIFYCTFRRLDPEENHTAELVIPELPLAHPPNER

[3] = system: MDA-MB-231 cells; test: MTT non-specific cytotoxicity assay, MDA-MB-231; assay type: cell-based; settings: for EC50: Homo sapiens, MDA-MB-231, 48 h, read-out: EC50 (μM)/MDA-MB-231 Toxicity; for direct killing of tumor cells: as shown in Table 3
Experimental: (§1) Considering that the toxicity of the compound might strongly interfere with the assay if the tested compounds could block PD-1/PD-L1 interaction to activate T cells for killing tumors, we examined their cell toxicities of MDA-MB-231 and Jurkat T cells in MTT assay. […] Furthermore, Jurkat T cells were used to simulate primary T cells for investigating the immune toxicity of the treated compounds with the regular concentrations within 48 h.
(§2) The MDA-MB-231 and Jurkat cell line was provided by the Chinese Academy of Sciences Cell Bank. The cytotoxicity of the test compounds was determined using the MTT assay. Briefly, MDA-MB-231 and Jurkat cells were incubated at 37 °C in a humidified 5% CO2 incubator for 24 h in 96-microwell plates. Then, 100 μL of culture medium containing the test compounds at different concentrations was added to each well and incubated at 37 °C for another 48 h. The MTT was added and incubated for another 4 h, and the optical density was detected with a microplate reader at 570 nm. The IC50 values were calculated according to the dose-dependent curves.

[4] = system: Jurkat T cells; test: MTT non-specific cytotoxicity assay, Jurkat; assay type: cell-based; settings: for EC50: Homo sapiens, Jurkat, MTT, 48 h, read-out: EC50 (μM)/Jurkat Toxicity; for immune toxicity in Jurkat T cells: regular concentrations within 48 h
Experimental: as §1, §2

[5] = target: hPD-L1 (Homo sapiens, UniProt Q9NZQ7); test: SPR binding affinity assay (Biacore T200)
Chain of hPD-L1 (Q9NZQ7 19-238 limits assumed): as above
Experimental: To provide definitive evidence of direct binding to PD-L1 with small-molecule inhibitors, an SPR-based binding assay was performed using Biacore T200 instrument, which facilitates measurement of the kinetic parameters of ligand–protein complex formation. In this determination, hPD-L1/Fc was loaded on a Series S Sensor Chip Protein A. A9 and A15, with similar bioactivities in HTRF assay, were gradually subjected to this assay, and their kinetic parameters and the binding affinities were determined with the aid of Biacore evaluation software.
SPR analysis was carried out according to the method described by a previous article. The kinetic analysis for the interaction of small molecules with hPD-L1 was performed on a Biacore T200 (GE Healthcare Bio-sciences, Uppsala, Sweden) using Series S Sensor Chip Protein A (GE Healthcare Bio-sciences, Uppsala, Sweden, catalog # 29139131-AA). Briefly, Fc-hPD-L1 (Acro Biosystems, Cambridge, MA, USA, catalog #PD1-H5258) was diluted using 1 × PBS-P^+ buffer (phosphate buffer 1×, GE Healthcare Bio-sciences, catalog # 28-9950-84, enriched with 0.05% surfactant P20) containing 5% DMSO (Sigma-Aldrich, St. Louis, MO, America, catalog # D4540) and captured as the ligand (i.e., the target of small molecules) on protein A chip surface following Biacore T200 build-in protocol for kinetic/affinity analysis at a concentration of 10 μg/mL. The contact time and flow rates were set as 120 s and 10 μL/min for the ligand capture. Each experiment was performed using a pair of flow cells, one with ligand captured and the other kept as reference. A concentration gradient of analytes was freshly prepared in 1× PBS-P^+ buffer with 5% DMSO with at least five concentrations, and the concentration range was optimized according to different analytes. Analytes could flow through both ligand-captured flow cells and reference flow cells at the same rate (30 μL/min) and contact time (90 s). Solvent correction was included to avoid the impact of DMSO on surface plasmon effect during binding analysis. Extra washing of the flow system using 50% DMSO in 1×PBS-P^+ buffer was allowed to control carry over effects. For the regeneration of surface after each cycle (one-time ligand capture and binding of analyte at a single concentration) was carried out using 10 mM glycine pH 1.5 (GE Healthcare Bio-sciences, Uppsala, Sweden, catalog #BR-1003-54) at a flow rate of 30 μL/min for 30 s. Kinetic analysis was performed at 25 °C. Maximum binding response (Rmax) and equilibrium dissociation […] (KD) values were calculated using Biacore T200 Evaluation software following the 1:1 binding model.

| Structure (SMILES) | IC50 [2] | LE [2] | melting point | other results |
| --- | --- | --- | --- | --- |
| COc1nc(OCc2cccc(-c3ccccc3)c2C)ccc1CNCCNC(C)=O [BMS-202, reference compound] |  |  |  | solubility [1]: 90 µg/mL (≈ 215 µM) |
| Cc1ccccc1-c1cccc(OCCCN2CCC(O)CC2)c1C.Cl [Compound A1, 1-(3-((2,2′-Dimethyl-[1,1′-biphenyl]-3-yl)oxy)propyl)piperidin-4-ol hydrochloride] | 114 nM | 0.38 |  | inhibition at 0.1 µM [2]: 56%; inhibition at 1 µM [2]: 90% |
| Cc1c(CN2CCC(N3CCC(O)CC3)CC2)cccc1-c1ccccc1F [Compound A2, 1′-((2′-Fluoro-2-methyl-[1,1′-biphenyl]-3-yl)methyl)-[1,4′-bipiperidin]-4-ol] |  |  | 110 to 113 °C | inhibition at 0.1 µM [2]: 8.5%; inhibition at 1 µM [2]: 6.7% |
| COc1cc(-c2cccc(-c3ccccc3F)c2C)ccc1CN1CCC(O)CC1 [Compound A3, 1-((2″-Fluoro-3-methoxy-2′-methyl-[1,1′:3′,1″-terphenyl]-4-yl)methyl)piperidin-4-ol] | 18.4 nM | 0.35 | 61.5 to 63.5 °C | inhibition at 0.1 µM [2]: 74.5%; inhibition at 1 µM [2]: 96.2% |
| COc1nc(-c2cccc(-c3ccccc3F)c2C)ccc1CN1CCC(O)CC1 [Compound A4, 1-((6-(2′-Fluoro-2-methyl-[1,1′-biphenyl]-3-yl)-2-methoxypyridin-3-yl)methyl)piperidin-4-ol] | 21.9 nM | 0.36 | 84 to 86 °C | inhibition at 0.1 µM [2]: 71%; inhibition at 1 µM [2]: 98% |
| COc1nc(-c2cccc(-c3ccccc3F)c2C)ccc1CN1CCCC(C(N)=O)C1 (stereo not drawn) [Compound A6, 1-((6-(2′-Fluoro-2-methyl-[1,1′-biphenyl]-3-yl)-2-methoxypyridin-3-yl)methyl)piperidine-3-carboxamide] | 121 nM | 0.30 | 88 to 91 °C |  |
| COc1nc(-c2cccc(-c3ccccc3F)c2C)ccc1CN1CCC(C(=O)O)CC1 [Compound A8, 1-((6-(2′-Fluoro-2-methyl-[1,1′-biphenyl]-3-yl)-2-methoxypyridin-3-yl)methyl)piperidine-4-carboxylic acid] | 20.6 nM | 0.33 | 218 to 220 °C |  |
| COc1nc(-c2cccc(-c3ccccc3C(F)(F)F)c2C)ccc1CNCCC(N)=O [Compound A12] | 51.5 nM | 0.31 | 50.5 to 53.5 °C | decrease in activity as compared with A9 ([2]; HTRF IC50 ratio): more than 10 fold |
| COc1nc(-c2cccc(-c3ccc(F)cc3F)c2C)ccc1CNCCC(N)=O [Compound A16] | 60 nM | 0.33 | 113 to 115 °C |  |
| COc1nc(-c2cccc(-c3ccc(Cl)cc3F)c2C)ccc1CNCCC(N)=O [Compound A17] | 866 nM | 0.28 | 122 to 124 °C |  |
| COc1nc(-c2cccc(-c3ccc(C(F)(F)F)cc3F)c2C)ccc1CNCCC(N)=O [Compound A18] | 791 nM | 0.25 | 137 to 139 °C |  |

More lines, in order of falling IC50 [2], values ahead:

| IC50 [2] | LE [2] | melting point | Structure (SMILES) | other results |
| --- | --- | --- | --- | --- |
| 14.3 nM | 0.35 | 80 to 82 °C | COc1nc(-c2cccc(-c3ccccc3F)c2C)ccc1CNC1CCC(O)CC1 (stereo not drawn) [Compound A5, 4-(((6-(2′-Fluoro-2-methyl-[1,1′-biphenyl]-3-yl)-2-methoxypyridin-3-yl)methyl)amino)cyclohexan-1-ol] |  |
| 10.7 nM | 0.34 | 194 to 196 °C | COc1nc(-c2cccc(-c3ccccc3F)c2C)ccc1CN1CCC(C(N)=O)CC1 [Compound A7, 1-((6-(2′-Fluoro-2-methyl-[1,1′-biphenyl]-3-yl)-2-methoxypyridin-3-yl)methyl)piperidine-4-carboxamide] |  |
| 10.5 nM | 0.38 | 70 to 73 °C | COc1nc(-c2cccc(-c3ccccc3C)c2C)ccc1CNCCC(N)=O [Compound A10] | decrease in activity as compared with A9 ([2]; HTRF IC50 ratio): more than 10 fold |
| 6.18 nM | 0.39 | 49 to 51 °C | COc1nc(-c2cccc(-c3ccccc3Cl)c2C)ccc1CNCCC(N)=O [Compound A11] | EC50 [3]: 7.1 µM; direct killing of tumor cells [3]: do not directly kill tumor cells; EC50 [4]: 5.5 µM; immune toxicity in Jurkat T cells [4]: lower cell toxicity |
| 1.94 nM | 0.43 | 127 to 128 °C | COc1nc(-c2cccc(-c3ccccc3)c2C)ccc1CNCCC(N)=O [Compound A13] | EC50 [3]: > 10 µM; direct killing of tumor cells [3]: do not directly kill tumor cells; increase in potency over compound A11 ([2]; HTRF IC50 ratio): approximately 3 fold; EC50 [4]: 7.73 µM |
| 1.75 nM | 0.41 | 48 to 51 °C | COc1nc(-c2cccc(-c3cccc(F)c3)c2C)ccc1CNCCC(N)=O [Compound A14, 3-(((6-(3′-Fluoro-2-methyl-[1,1′-biphenyl]-3-yl)-2-methoxypyridin-3-yl)methyl)amino)propenamide] | EC50 [3]: > 10 µM; direct killing of tumor cells [3]: do not directly kill tumor cells; EC50 [4]: > 10 µM |
| 0.97 nM | 0.43 | 120 to 122 °C | COc1nc(-c2cccc(-c3ccc(F)cc3)c2C)ccc1CNCCC(N)=O [Compound A15] | EC50 [3]: 10.2 µM; direct killing of tumor cells [3]: do not directly kill tumor cells; EC50 [4]: 5.5 µM; immune toxicity in Jurkat T cells [4]: lower cell toxicity; LE ([5]; LE = -1.35log KD/Nheavy atoms (SPR KD)): 0.36; kon ([5]; SPR association rate, read-out: Ka (M-1s-1) / Kon): 505000 M⁻¹ s⁻¹; koff ([5]; SPR dissociation rate, read-out: Kd (s-1) / Koff): 0.0101 s⁻¹; Kd ([5]; SPR, 25 °C, 1:1 binding model): 19.9 nM |
